A short description of assay [1]: Serum titres of glatiramer acetate IgG after glatiramer acetate immunization (ELISA). Format: in vivo, mouse. The method, then:
(§1) The antigen of interest was dissolved in 0.1 M carbonate buffer, pH 9.5, and applied at 1 μg per well in 96-well polystrene plates. Incubation was overnight at 4° C. Plates were then rinsed with PBST (phosphate buffered saline containing 0.05% Tween 20 detergent) and incubated for 1 hr in PBSM (phosphate buffered saline containing 5% defatted milk powder). Plates were rinsed with PBST, then incubated for 4 hr at room temperature with 50×PBS. Plates were rinsed with PBST, then incubated with biotinylated secondary antibodies that were raised in goat. The secondary antibodies, diluted in PBSM 1:50, were specific to mouse IgG or mouse IgM. Incubation was for 2 hr at room temperature. Plates were rinsed in PBST, then PBS. Streptavidin-alkaline phosphatase conjugate diluted in PBS was applied to the plates for 2 hr room temperature. Plates were rinsed with PBST, with a final rinse in water. The colored reaction product was produced by incubation with p-nitrophenyl phosphatase in 0.1 M carbonate buffer plus 1 mM magnesium chloride. The reaction was stopped with 0.5 N sodium hydroxide. Antibody isotyping was performed using a detection kit and purified isotype standards from Zymed Laboratories (San Francisco, Calif.). Extrapolation of the concentration of each isotype within the antibody samples was based on the sample dilution that produced the absorbence signal falling within the most linear portion of each standard isotype curve. Optical absorbency was measured at a wavelength of 405 nm.
Antibodies from normal SJL serum (SJL Ig) and commercial, pooled mouse serum (Pooled Ig) were also purifed by Protein A/G chromatography.
Mice were sacrificed on Day 65 post-immunization. […] The secondary antibody was biotinylated anti-mouse IgG.
Serum was isolated from these mice on Day 62. […] Serum was isolated from these mice on Day 41. […] Serum was isolated on Day 76. […] The secondary antibody was biotinylated anti-mouse IgG.
The final passive transfer was on Day 35. After 41 days of treatment, both groups of mice were sacrificed and serum titres of Copolymer IgG was measured by ELISA. The secondary antibody was biotinylated anti-mouse IgG.

In assay [2] the test system is experimental autoimmune encephalomyelitis (EAE). The note with it: unlike MBP; cited from earlier work.
The test system of the next assay is multiple sclerosis. The note with it: daily subcutaneous injections, 20 mg/injection; cited from earlier work.
Assay [3] concerns SJL/J mice infected with Theiler's murine encephalomyelitis virus. The experiment in a line: Spinal cord demyelination quantitation (lesion load) in TMEV-infected mice. Format: in vivo, mouse. The method, then:
(§2) All mice used in the experiments were SJL/J mice (Jackson Laboratories, Bar Harbor, Me.). Six- to eight-week-old mice were intracerebrally injected with 2.0×10^6 pfu of Daniel's strain of Theiler's murine encephalomyelitis virus.
(§3) Areas of spinal cord demyelination (lesion load) and remyelination (73) were determined from multiple cross-sections of plastic-embedded spinal cords, using a camera lucida system and a computerized drawing tablet (39). Briefly, mice were sacrificed by overdose with sodium pentobarbital and perfused by intracardiac puncture with Trumps fixative, containing 4% paraformaldehyde and 1% glutaraldehyde. Spinal cords were removed, post-fixed in osmium textroxide, and sectioned into 1 mm blocks. Every third block (10-12 blocks per spinal cord; cervical to lumbar range) was embedded in Araldite plastic. The embedded tissues were cross-sectioned at 1 μm thickness, and the slides stained with 4% paraphenylenediamine to highlight the myelin sheaths.
Using a camera lucida attached to a Zeiss photomicroscope and a ZIDAS interactive digital analysis system, three parameters were measured from each slide: total white matter area, demyelinated lesion area, and remyelination area. Outline of these regions were traced and the areas calculated by the computerized digital analysis system. Demyelination was expressed as the total lesion area as a percentage of total white matter area. Remyelination was expressed as the total remyelination area as a percentage of the total demyelinated lesion area. The criterion for remyelination by oligodendrocytes was abnormally thin myelin sheaths. All remyelination data refers to oligodendrocyte-mediated remyelination. Occasionally, Schwann-cell mediated remyelination was observed, characterized by abnormally thick myelin sheaths and nuclei juxtaposed to the myelin sheath.
Virus was injected on Day 0.
Chronically infected mice (124-365 days post-infection) were treated subcutaneously for periods of 41-76 days. […] These mice were sacrificed after 65 days. […] The members of this group were sacrificed after 65-76 days. […] Sacrifice of these mice occurred after 41-65 days. The control group of mice received PBS. In all groups, spinal cord demyelination was measured after sacrifice.
Chronically infected mice (160-477 days post-infection) were treated by intraperitoneal injection with antibodies for periods of 36-76 days. One group of mice received Normal antibodies, administered in 10 injections of 0.05 mg each for a total of 0.5 mg over 42 days. […] PBS was administered to the control group of mice. Spinal cord white matter demyelinating pathology was measured post-sacrifice for all mice.
Each mouse received 5 weekly injections for total antibody doses of 0.5 or 1.5 mg (0.1-0.3 mg/injection). After sacrifice, spinal cord demyelination was measured.

For assay [4], the system named is TMEV. The experiment in a line: TMEV antigen expression (virus antigen-positive cells). The class given is in vivo, Theiler's murine encephalomyelitis virus. The note with it: 6-9 wks after high-dose immunization.
The subject of another assay is UV-inactivated TMEV. The experiment in a line: TMEV delayed type hypersensitivity (ear thickness). To be noted: immunized mice vs IFA control. Format: in vivo, mouse. The method, then: Ear thickness was measured prior to injection, and 24 and 48 hr after injection.
(§4) Serum titers of antibodies against TMEV and anti-TMEV DTH reactions were measured.

The test system of assay [5] is lymph node-derived lymphocytes from MBP84-102- and PLP179-191-immunized mice. Nature of the assay: In vitro [3H]-thymidine proliferation of lymph node-derived lymphocytes from myelin peptide-immunized mice. The class given is cell-based, mouse. The note with it: Experiment 6A; 53 hours culture. The method, then:
Two mice were subcutaneously injected in the flanks with MBP 84-102 in complete Fruend's adjuvant (CFA). MBP84-102 was obtained by following the procedure of Hawes et al (24). A method similar to that of Tuohy et al. was employed to produce PLP179-191 (70). PLP179-191 in CFA was subcutaneously injected into the flanks of 1 mouse. […] In the last 13 hours of culture, 1 μCi of [^3H]-thymidine was added and its incorporation measured by scintillation counting of harvested cells.
Mice were subcutaneously injected in the flanks with MBP84-102 (2 mice) peptide in CFA. After 10 days, inguinal and peri-aortic lymph nodes were removed, dissociated, and grown for 74 hours in cultures in medium alone or with additional additives as shown in FIG. 17. In the last 12 hours of culture, 1 μCi of [^3H]-thymidine was added and its incorporation measured by scintillation counting of harvested cells.

Assay [6] concerns TMEV. The experiment in a line: Serum anti-TMEV IgG titers after glatiramer acetate immunization. The class given is in vivo, Theiler's murine encephalomyelitis virus. The note with it: four weeks after immunization, vs control mice. The method, then: as §1, with “An indirect ELISA was performed in which serum or a purified antibody was applied to plates that were pre-coated with glatiramer acetate or other protein antigens. The antigen” for “The antigen”, “sodium hydroxide. […] Optical absorbency” for “sodium hydroxide. Antibody isotyping was performed using a detection kit and purified isotype standards from Zymed Laboratories (San Francisco, Calif.). Extrapolation of the concentration of each isotype within the antibody samples was based on the sample dilution that produced the absorbence signal falling within the most linear portion of each standard isotype curve. Optical absorbency”
as §4

Assay [7] concerns SJL/J mice infected with Theiler's murine encephalomyelitis virus. The experiment in a line: Spinal cord remyelination quantitation in TMEV-infected mice. Format: in vivo, mouse. The method, then: as §2
as §3, with “The embedded tissues were cross-sectioned at 1 μm thickness, and the slides stained with 4% paraphenylenediamine to highlight the myelin sheaths.” left out
Using a camera lucida attached to a Zeiss photomicroscope and a ZIDAS interactive digital analysis system, three parameters were measured from each slide: total white matter area, demyelinated lesion area, and remyelination area. Outline of these regions were traced and the areas calculated by the computerized digital analysis system. Demyelination was expressed as the total lesion area as a percentage of total white matter area. Remyelination was expressed as the total remyelination area as a percentage of the total demyelinated lesion area. […]

Regarding “L-glutamic acid polymer with L-alanine, L-lysine and L-tyrosine, acetate (salt) [glatiramer acetate]”, the “highest antibody titer reached” value in [1] (chronically diseased mice immunized with 5 mg) is 1.2 mg/mL. Besides, the “dose dependence of production of antibodies against glatiramer acetate” value in assay [1] (chronically diseased mice, 0.1 vs 5 mg injections) is listed as “highly dose-dependent”. For the same substance, the “influence of dose (0.1-1.0 mg) and injection timing on glatiramer acetate IgG titres” value in assay [1] (non-infected immunized mice) was “did not significantly influence glatiramer acetate IgG titres”. Further, the “time required to achieve high antibody titres” value in assay [1] (non-infected immunized mice) is reported as “Approximately 3 weeks”. Moreover, in assay [2], the “effect on EAE” value is given as “inhibits rather than induces”. For the same substance, the “clinical effect in multiple sclerosis” value in the assay on multiple sclerosis is “reduce relapse rates, appearance of new lesions by magnetic resonance imaging (MRI), and progression of disability”. For the same substance, the “effect on extent of demyelination” value in assay [3] (early disease, 45 days post-infection, 0.1 mg/injection, 60 days of treatment) was “no statistically significant effect”; in assay [3] (late disease, low doses (0.1 mg/injection), alone or with adjuvant), “did not alter the extent of demyelination”. Moreover, the “effect on demyelinating lesions” value in [3] (late disease, high dose (5 mg glatiramer acetate/IFA, 1-2 injections), vs PBS) is given as “expansion of the demyelinating lesions”. Moreover, the “white matter demyelinated (mean lesion load)” value in assay [3] (late disease, high dose of glatiramer acetate) is 20%; in [3] (late disease, low-dose glatiramer acetate), 10%. The “virus expression (virus antigen-positive cells)” value in the assay with TMEV [4] was “tended to be higher”. For the same substance, the “anti-TMEV DTH reactions” value in the assay with UV-inactivated TMEV was “reduced”. Moreover, the lymphocyte proliferation entry in assay [5] is “did not induce significant proliferation”. The “anti-TMEV titers (total IgG, IgG1, IgG2a)” value with TMEV [6] was “reduced”. Besides, in [7] (Example 8, infected 6 months or longer, glatiramer acetate 0.1 mg/injection or antibodies 1.5 mg total), the “remyelination of lesions (pathology)” value is “not more extensive than following the PBS treatment”. For the same substance, the “effect on extent of oligodendrocyte-mediated remyelination” value in assay [7] (late disease, s.c. treatment as Experiment 2A, alone or with IFA) is “did not affect the extent of oligodendrocyre-mediated remyelination”.

The values above are taken from patent US6800285B2 (priority 2000, dated 2004).
